Values of other authors in publication PMC10644327, “A randomized, double‐blind phase 1b study evaluating the safety, tolerability, pharmacokinetics and pharmacodynamics of the NLRP3 inhibitor selnoflast in patients with moderate to severe active ulcerative colitis” (Clinical and Translational Medicine, 2023).

Set-up: method as in earlier work
Conditions: added to standard‐of‐care therapy, patients with acute severe UC; cited from earlier work

In the case of anakinra, the Clinical outcome is listed as “did not improve the clinical outcome”.
